Test results published in PubChem BioAssay (NCI).
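Tested at 5 concentrations; 48 h exposure; 96-well plates; endpoints linearly interpolated, else capped at highest concentration. TGI: total growth inhibition.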

Assays:
Assay in all cases: NCI anticancer screen, dose series, 48 h
[1] = system: XF 498 CNS
[2] = system: MALME-3M melanoma
[3] = system: M19-MEL melanoma
[4] = system: DLD-1 colon
[5] = system: SK-MEL-28 melanoma
[6] = system: IGROV1 ovarian
[7] = system: DMS 273 small cell lung
[8] = system: DMS 114 small cell lung
[9] = system: SK-MEL-5 melanoma
[10] = system: LXFL 529 NSCLC
[11] = system: SNB-75 CNS
[12] = system: SNB-78 CNS
[13] = system: HOP-18 NSCLC
[14] = system: KM20L2 colon
[15] = system: RXF-631 renal

For `CCN(CC)c1oc(N(CC)CC)c(C(=O)Nc2ccccn2)c(=O)c1C(C)=O`, the TGI [1] was over 100 µM, the TGI [2] was over 100 µM and the TGI [3] was over 100 µM. The TGI [4] was over 100 µM, the TGI [5] was over 100 µM and the TGI [6] was over 100 µM. For the same compound, the TGI [7] was over 100 µM, the TGI [8] was over 100 µM and the TGI [9] was over 100 µM. It also gave a TGI [10] of over 100 µM, a TGI [11] of over 100 µM and a TGI [12] of over 100 µM.

With `COc1ccc2nc3cc(Cl)ccc3c(SCC(=O)Nc3ccccc3-c3ccccc3NC(=O)CSc3c4ccc(Cl)cc4nc4ccc(OC)cc34)c2c1` the TGI [1] was over 100 µM, the TGI [2] was over 100 µM and the TGI [3] was over 100 µM. The TGI [4] was over 100 µM, the TGI [5] was over 100 µM and the TGI [6] was over 100 µM. For the same compound, the TGI [13] was over 100 µM, the TGI [7] was over 100 µM and the TGI [8] was over 100 µM. The TGI [9] was over 100 µM, the TGI [10] was over 100 µM and the TGI [11] was over 100 µM. It also gave a TGI [14] of over 100 µM and a TGI [12] of over 100 µM.

With `CCOc1ccc(NC(=O)C(=O)C(C(=O)c2ccc3ccccc3c2)C2OC(=O)c3ccccc32)cc1` (configuration not stated) the TGI [1] was 60.6 µM, the TGI [2] was 77.4 µM and the TGI [3] was 34.6 µM. The TGI [4] was 30.1 µM, the TGI [5] was 37.5 µM and the TGI [6] was 52.5 µM. It also gave a TGI [13] of 78.1 µM, a TGI [7] of 47 µM and a TGI [8] of 89.7 µM. For the same compound, the TGI [9] was 31.9 µM, the TGI [10] was 37.4 µM and the TGI [11] was 64.9 µM. For the same compound, the TGI [14] was over 100 µM and the TGI [12] was 64.9 µM.

Compound `O=c1cc(-c2cccnc2)[nH]c2cc3c(cc12)OCO3` has a TGI [1] of 72.7 µM, a TGI [2] of over 26 µM and a TGI [3] of over 100 µM. The TGI [4] was over 100 µM, the TGI [5] was over 100 µM and the TGI [6] was over 28.1 µM. The TGI [13] was 84.1 µM, the TGI [7] was over 100 µM and the TGI [8] was over 100 µM. The TGI [9] was 23.9 µM, the TGI [10] was 26.8 µM and the TGI [11] was 27.1 µM. For the same compound, the TGI [12] was over 100 µM.

For `NC(=O)NC12CC3CC(CC(F)(C3)C1)C2`, the TGI [1] was over 100 µM, the TGI [2] was over 100 µM and the TGI [3] was over 100 µM. The TGI [4] was over 100 µM, the TGI [5] was over 100 µM and the TGI [15] was over 100 µM. It also gave a TGI [6] of over 100 µM, a TGI [7] of over 100 µM and a TGI [8] of over 100 µM. For the same compound, the TGI [10] was over 100 µM, the TGI [11] was over 100 µM and the TGI [14] was over 100 µM. It also gave a TGI [12] of over 100 µM.

In the case of `CC(Oc1ccc(OCC2CCCCC2)cc1)C(=O)NCc1ccco1` (configuration not stated), the TGI [1] is reported as over 100 µM, the TGI [2] is reported as 58.7 µM and the TGI [3] is reported as over 100 µM. It also gave a TGI [4] of over 100 µM, a TGI [5] of over 100 µM and a TGI [6] of over 100 µM. It also gave a TGI [13] of over 100 µM, a TGI [7] of 94.1 µM and a TGI [8] of 56.6 µM. It also gave a TGI [9] of 31.4 µM, a TGI [10] of over 100 µM and a TGI [11] of over 100 µM. It also gave a TGI [12] of over 100 µM.

Work on `Nc1nc(-c2ccco2)cc(-c2ccc(CO)o2)n1` yielded a TGI [1] of over 100 µM, a TGI [2] of over 100 µM and a TGI [3] of over 100 µM. The TGI [5] was over 100 µM, the TGI [6] was over 100 µM and the TGI [7] was over 100 µM. It also gave a TGI [8] of over 100 µM, a TGI [9] of over 100 µM and a TGI [10] of over 100 µM. The TGI [11] was over 100 µM, the TGI [14] was over 100 µM and the TGI [12] was over 100 µM.

Compound `COc1cccc(NC(=O)CC(=O)N2N=C(n3ccc4ccccc43)CC2c2ccccc2)c1` (configuration not stated) has a TGI [2] of over 100 µM, a TGI [3] of over 100 µM and a TGI [4] of over 100 µM. It also gave a TGI [5] of over 100 µM, a TGI [6] of over 100 µM and a TGI [13] of over 100 µM. For the same compound, the TGI [7] was over 100 µM, the TGI [8] was over 100 µM and the TGI [10] was over 100 µM. For the same compound, the TGI [11] was over 100 µM, the TGI [14] was over 100 µM and the TGI [12] was over 100 µM.

Compound `COC1=C(C)C(=O)c2c(cc3c(c2O)C(C)(CCC=C(C)C)C(C)O3)C1=O` (configuration not stated) has a TGI [1] of over 100 µM, a TGI [2] of over 100 µM and a TGI [3] of 30.1 µM. It also gave a TGI [4] of over 100 µM, a TGI [5] of over 100 µM and a TGI [6] of over 100 µM. The TGI [13] was over 78.7 µM, the TGI [7] was over 86.4 µM and the TGI [8] was over 100 µM. It also gave a TGI [9] of 27.4 µM, a TGI [10] of over 100 µM and a TGI [11] of 37.1 µM. It also gave a TGI [14] of over 100 µM and a TGI [12] of over 100 µM.

`O=C1c2ccccc2N2Oc3ccccc3C12c1ccccc1` (configuration not stated) gave a TGI [2] of over 100 µM, a TGI [3] of over 100 µM and a TGI [5] of over 100 µM. It also gave a TGI [6] of over 100 µM, a TGI [13] of over 100 µM and a TGI [7] of over 100 µM. The TGI [8] was over 100 µM, the TGI [9] was over 100 µM and the TGI [10] was over 100 µM. For the same compound, the TGI [11] was over 100 µM, the TGI [14] was over 100 µM and the TGI [12] was over 100 µM.

With `COc1cc2c(cc1OC)[C@@H](Nc1ccc(F)cc1)C1COC(=O)[C@@H]1C2c1cc(OC)c(O)c(OC)c1` (some centres not stated) the TGI [1] was over 24.7 µM, the TGI [2] was over 88.8 µM and the TGI [3] was over 100 µM. For the same compound, the TGI [4] was 40.5 µM, the TGI [5] was over 100 µM and the TGI [15] was over 82.7 µM. It also gave a TGI [6] of over 100 µM, a TGI [13] of over 100 µM and a TGI [7] of 8.41 µM. For the same compound, the TGI [8] was 10.4 µM, the TGI [9] was 23.2 µM and the TGI [10] was over 100 µM. For the same compound, the TGI [11] was over 48 µM, the TGI [14] was over 54.2 µM and the TGI [12] was 97.5 µM.

`CCc1ccccc1NC(=O)/C(N=O)=C(/C)O` showed a TGI [1] of over 100 µM, a TGI [2] of over 100 µM and a TGI [3] of over 100 µM. For the same compound, the TGI [4] was over 100 µM, the TGI [5] was over 100 µM and the TGI [15] was over 100 µM. The TGI [6] was over 100 µM, the TGI [13] was over 100 µM and the TGI [7] was over 100 µM. For the same compound, the TGI [8] was over 100 µM, the TGI [9] was over 100 µM and the TGI [10] was over 100 µM. The TGI [11] was over 100 µM, the TGI [14] was over 100 µM and the TGI [12] was over 100 µM.

`CCCCCCCCC/C=C1\CCC(CN(C)C)C1=O` (configuration not stated) was tested, and the TGI [2] was 12.6 µM, the TGI [3] was 3.87 µM and the TGI [4] was 4.28 µM. It also gave a TGI [5] of 4.28 µM, a TGI [15] of 4.53 µM and a TGI [6] of 6.53 µM. For the same compound, the TGI [7] was 3.25 µM, the TGI [8] was 4.87 µM and the TGI [9] was 3.9 µM. The TGI [10] was 2.64 µM, the TGI [11] was 6.28 µM and the TGI [14] was 4.66 µM. It also gave a TGI [12] of 5.03 µM.
